{
  "source": "patent US20220257665A1",
  "about": "“APPLICATION OF […] AGENTS TO STEM CELL DERIVED CARDIOMYOCYTES AND USES THEREOF” (priority 2019, published 2022)",
  "key": {"NPPA [1]": {"tested_on": "NPPA", "experiment": "Nanostring gene expression, hESC-derived cardiomyocytes in monolayer: NPPA", "format": "cell-based, human", "quoted_text": "(§3) Blank medium, addition of solvents as well as cardiomyocytes cultured for 9 days and day 42 were used as control. Beating of cells was assessed after 48 h, 72 h and 96 h. Cells were harvested following incubation for 10 minutes in RLTplus buffer (Qiagen). Changes in gene expression were determined using a custom nanostring gene panel (NanoString Technologies) according to manufacturer's instruction for the following target sequences including 7 housekeeping genes listed in Table 1.\n(§4) To study the direct impact of antiarrhythmic drugs on the properties of hESC-derived cardiomyocytes, changes in expression level of selected genes were analyzed that are associated with action potential formation (HCN1, HCN4, KCNA5, KCNE4, KCNH7, KCNJ3, KCNJ5, SCN1B, SCN5A), electrical signal propagation (GJA1, GJA5, GJD3), calcium handling (CACNA1C, CACNA1D, CACNA1G, RYR2, PLN), cardiac maturation (HOPX, MYH7, MYL2, TNN13) and cardiac hypertrophy (NPPA, NPPB) as well as pan-cardiomyocyte markers (NKX2-5, TNNT2, ACTA2)."}, "NKX2-5": {"tested_on": "NKX2-5", "experiment": "Nanostring gene expression, hESC-derived cardiomyocytes in monolayer: NKX2-5", "format": "cell-based, human", "quoted_text": "as §3, §4"}, "TNNT2": {"tested_on": "TNNT2", "experiment": "Nanostring gene expression, hESC-derived cardiomyocytes in monolayer: TNNT2", "format": "cell-based, human", "quoted_text": "as §3, §4"}, "[2]": {"tested_on": "human induced pluripotent stem cell derived cardiomyocytes (iCell2 cardiomyocytes)", "experiment": "Ca2+-recordings, beat-to-beat variability (CV), single agents", "format": "cell-based", "conditions": "24 h after withdrawal", "text": "In order to determine the lasting impact on the electrophysiological properties of the stem-cell derived cardiomyocytes following exposure to anti-arrhythmic agents, we conducted functional cardiomyocyte testing by means of Ca^2+-recordings and determined the arrhythmogenic potential of the stem-cell derived cardiomyocyte population after exposure to the anti-arrhythmic agents. […] (Kazuto Yamazaki et al, Beat-to-Beat Variability in Field Potential Duration in Human Embryonic Stem Cell-Derived Cardiomyocyte Clusters for Assessment of_Arrhythmogenic Risk, and a Case Study of Its Application, Pharmacology & Pharmacy, Vol. 5 No. 1, 2014, pp. 117-128). Of note, all Ca^2+-recordings were conducted at least 24 h after exposure to exclude the known direct effects of the agents via ion channel modulation. […] The cells were delivered as frozen vials and stored until use in liquid nitrogen. All culturing media necessary for thawing and culturing was supplied by the cell supplier. Thawing, plating and cultivation procedures were followed according to the protocol supplied by the manufacturer. Cells were plated directly onto the 384-well Greiner μClear plates coated with fibronectin. […] Media was changed (90%) one day after plating and then every second day and 3 hours before the experiments for the pilot study. […] Treatment was ended by exchanging medium to standard cultivation medium on DIV 6. Recording took place at DIV 7. Experiments were performed at a minimum of n=10 for each compound concentration. For Ca^2+ imaging experiments media was exchanged for the recordings by a HEPES buffered recording solution. A fluorescent Ca^2+ indicator (Cal-520-AM) was applied at a concentration of 2 μM and allowed to accumulate in the cells for 30 min before the buffer was exchanged again to dye-free buffer. Cells were allowed to recover for 10 min at 37° C. in the Hamamatsu FDSS recording system. All experiments were performed at 37° C. The framerate of the camera was set to a minimum of 35 Hz for recording and a binning of 4×4. To assess if the quality was sufficient for the experiments several parameters were reviewed (by-eye inspection), including regularity of the beating, shape and amplitude of the Ca^2+ signals and variability of these parameters between the different wells. Since the cells were spontaneously active, no electrical stimulation was applied. Cells were recorded for 5 min prior to compound application. 200 μM Moxifloxacin was applied after the baseline phase in a single-concentration-per-well fashion, followed by a wash-in phase of 5 min. Fluorescent activity was then recorded for additional 5 min. Moxifloxacin without compound preincubation was included as control (n=18), distributed over multiple plates. […] Coefficient of variation was calculated as where σ denotes the standard deviation and p represents the mean."}, "[3]": {"conditions": "cited from earlier work"}, "GJA5 [4]": {"tested_on": "GJA5", "experiment": "Nanostring gene expression, hESC-derived cardiomyocytes in monolayer: GJA5", "format": "cell-based, human", "conditions": "0.1 μM and 1 μM, 5 days exposure", "quoted_text": "as §3, §4"}, "ACTA2": {"tested_on": "ACTA2", "experiment": "Nanostring gene expression, hESC-derived cardiomyocytes in monolayer: ACTA2", "format": "cell-based, human", "conditions": "5 days exposure to 0.1 μM and 1 μM amiodarone (FIG. 7)", "quoted_text": "as §3, §4"}, "[5]": {"tested_on": "hESC-derived cardiomyocytes", "experiment": "Beating of hESC-derived cardiomyocytes after exposure to antiarrhythmic drugs", "format": "cell-based, human", "quoted_text": "Dissociated cardiomyocytes were seeded in RPMI1640 medium supplemented with 2% B27 and 0.1% Pen/Strep (Gibco) on laminin-521 or geltrex (Life Technologies)-coated plates at a cell density of 1×10^5/cm^2. […] Blank medium, addition of solvents as well as cardiomyocytes cultured for 9 days and day 42 were used as control. Beating of cells was assessed after 48 h, 72 h and 96 h."}, "GJA5 [6]": {"tested_on": "GJA5", "experiment": "Gene expression in 3D suspension aggregates 48 h after removal of the agent: GJA5", "format": "cell-based, human", "conditions": "10 μM for about 120 h, measured 48 h after treatment, 3D aggregates", "experimental": "(§1) In order to verify the lasting effect and the robustness across different culture systems, we tested the effect of the antiarrhythmic agents on the gene expression profile of the stem-cell derived cardiomyocytes using 3D suspension aggregates and measured the gene expression 48 h after removal of the anti-arrhythmic agents.\n(§2) The aggregates were subsequently maintained in 6-well suspension plates on an orbital shaker (75 rpm) at a cell density of about 1.5×10^6 cells/ml in 3 mL medium."}, "NPPA [7]": {"tested_on": "NPPA", "experiment": "Gene expression in 3D suspension aggregates 48 h after removal of the agent: NPPA", "format": "cell-based, human", "conditions": "10 μM for about 120 h, measured 48 h after treatment, 3D aggregates", "experimental": "as §1, §2"}, "[8]": {"conditions": "100 nM, proarrhythmic conditions (moxifloxacine)"}, "[9]": {"conditions": "10 nM, proarrhythmic conditions (moxifloxacine)"}},
  "data": [
    {"smiles": "CCN(CC)CC(=O)Nc1c(C)cccc1C", "note": "[Lidocaine, lidocaine]", "values": [
      {"measurement": "NPPA expression", "setting": "NPPA [1]; 1 μM, 10 μM and 100 μM lidocaine, 5 days, concentration dependent (FIG. 9)", "result": "decreased"},
      {"measurement": "expression of NKX2-5", "setting": "NKX2-5; 1 μM, 10 μM and 100 μM lidocaine, 5 days (FIG. 11)", "result": "without effecting the expression"},
      {"measurement": "expression of TNNT2", "setting": "TNNT2; 1 μM, 10 μM and 100 μM lidocaine, 5 days (FIG. 12)", "result": "without effecting the expression"},
      {"measurement": "reduction of CV (beat-to-beat variability) compared to control", "setting": "[2]; 100 nM, baseline conditions", "result": 80.8, "unit": "%"},
      {"measurement": "reduction of CV (beat-to-beat variability) compared to control", "setting": "[2]; [8]", "result": 84.7, "unit": "%"}
    ]},
    {"smiles": "Cc1cccc(C)c1OCC(C)N", "note": "(stereo not drawn) [Mexiletine, mexiletine]", "values": [
      {"measurement": "reduction of CV (beat-to-beat variability) compared to control", "setting": "[2]; 100 nM, baseline conditions", "result": 76.79, "unit": "%"},
      {"measurement": "reduction of CV (beat-to-beat variability) compared to control", "setting": "[2]; [8]", "result": 77.5, "unit": "%"},
      {"measurement": "typical plasma concentrations in vivo", "setting": "[3]", "result": "0.6 to 1.7", "unit": "µg/mL"}
    ]},
    {"smiles": "CC(C)NCC(O)c1ccc(NS(C)(=O)=O)cc1", "note": "(stereo not drawn) [Sotalol, sotalol]", "values": [
      {"measurement": "reduction of CV (beat-to-beat variability) compared to control", "setting": "[2]; 100 nM, baseline conditions", "result": 79.4, "unit": "%"},
      {"measurement": "reduction of CV (beat-to-beat variability) compared to control", "setting": "[2]; [8]", "result": 84.9, "unit": "%"},
      {"measurement": "typical plasma concentrations in vivo", "setting": "[3]", "result": "1 to 3", "unit": "µg/mL"}
    ]},
    {"smiles": "CCCCc1oc2ccccc2c1C(=O)c1cc(I)c(OCCN(CC)CC)c(I)c1", "note": "[amiodarone]", "values": [
      {"measurement": "upregulation of GJA5", "setting": "GJA5 [4]", "result": "> 3", "unit": "fold"},
      {"measurement": "reduction in NPPA expression", "setting": "NPPA [1]; amiodarone treatment, 5 days exposure to 0.1 μM and 1 μM (FIG. 3)", "result": "about 3 fold"},
      {"measurement": "changes of the expression of NKX2-5", "setting": "NKX2-5; 5 days exposure to 0.1 μM and 1 μM amiodarone (FIG. 5)", "result": "did not result in changes"},
      {"measurement": "changes of the expression of TNNT2", "setting": "TNNT2; 5 days exposure to 0.1 μM and 1 μM amiodarone (FIG. 6)", "result": "did not result in changes"},
      {"measurement": "changes of the expression of ACTA2", "setting": "ACTA2", "result": "did not result in changes"},
      {"measurement": "beating frequency", "setting": "[5]; 1 μM", "result": "clearly reduced"},
      {"measurement": "beating frequency", "setting": "[5]; 10 μM", "result": "abrogated"},
      {"measurement": "increase in GJA5", "setting": "GJA5 [6]", "result": "about 2.7 fold"},
      {"measurement": "decrease in NPPA", "setting": "NPPA [7]", "result": "about 2 fold"},
      {"measurement": "reduction of CV (beat-to-beat variability) compared to control", "setting": "[2]; 10 nM, baseline conditions", "result": 76.5, "unit": "%"},
      {"measurement": "reduction of CV (beat-to-beat variability) compared to control", "setting": "[2]; [9]", "result": 83.3, "unit": "%"}
    ]},
    {"smiles": "COCCc1ccc(OCC(O)CNC(C)C)cc1", "note": "(stereo not drawn) [metoprolol]", "values": [
      {"measurement": "reduction of CV (beat-to-beat variability) compared to control", "setting": "[2]; 10 nM, baseline conditions", "result": 79.2, "unit": "%"},
      {"measurement": "reduction of CV (beat-to-beat variability) compared to control", "setting": "[2]; [9]", "result": 83.2, "unit": "%"}
    ]},
    {"smiles": "CC(C)NCC(O)COc1cccc2ccccc12", "note": "(stereo not drawn) [propranolol]", "values": [
      {"measurement": "reduction of CV (beat-to-beat variability) compared to control", "setting": "[2]; 100 nM, baseline conditions", "result": 73.7, "unit": "%"},
      {"measurement": "reduction of CV (beat-to-beat variability) compared to control", "setting": "[2]; [8]", "result": 88.5, "unit": "%"},
      {"measurement": "typical plasma concentrations in vivo", "setting": "[3]", "result": "0.0021 to 0.3", "unit": "µg/mL"}
    ]}
  ]
}
